In patent US20100022637A1, “IDENTIFICATION OF ANTI-CANCER COMPOUNDS AND COMPOUNDS FOR TREATING HUNTINGTON'S DISEASE AND METHODS OF TREATMENT THEREOF” (THE TRUSTEES OF COLUMBIA UNIVERSITY IN THE CITY OF NEW YORK, priority 2005, published 2010):
In brackets after ≈: the same amount, converted by molar mass.

Legend:
RKO-E6 cells = test: Alamar Blue viability assay, RKO-E6; format: cell-based, human; conditions: for effect on doxorubicin's lethality in RKO-E6 cells: co-treatment with 0.5 μg/ml doxorubicin
Protocol: RKO colon carcinoma, human (ATCC, order # CRL-2577), RKO-E6 colon carcinoma transfected with HPV E6 inserted in pCMV.3 (ATCC, order # CRL-2578) were grown in MEM with 2 mM L-glutamine and Earle's BBS adjusted to contain 1.5 g/L NaHCO3, 0.1 mM non-essential amino acids and 1.0 mM sodium pyruvate, and supplemented with 10% fetal bovine serum, penicillin and streptomycin (pen/strep). Both cell lines were incubated at 37° C. in a humidified incubator containing 5% CO2.
The Alamar Blue assay incorporates a fluorimetric/colorimetric growth indicator that changes color in the response to chemical reduction by viable cells (Nociari 1998). Cells were seeded at a density of 3,000 cells (57 μl) per well in a 384-well black, clear-bottom plates using a syringe bulk dispenser (Zymark Sciclone ALH). Three microliters were removed from a compound daughter plate using a 384 fixed cannula head and added to the assay plate, making the final concentration 4 μg/ml. The plates were incubated for 24 h at 37° C. 10 μl of 40% Alamar Blue (Biosource Int., cat #DAL1100) solution in media was added to each well (1:10 dilution). The assay plates were incubated for 16h. Fluorescence intensity was determined using a Packard Fusion platereader with a 535 nm excitation filter and a 590 nm emission filter. The average fluorescence for the whole plate was used as a positive control. Average percentage inhibition for each well was determined using our freely available SLIMS software (Kelley et al., 2004).
The daughter plates for the 2-fold dilution series were prepared with a Zymark Sciclone ALH by diluting the replica daughter plates to obtain compound concentrations from 8 μg/ml-0.008 μg/ml (columns 8-18). Columns 1-7 were used as untreated control. RKO-E6 cells were seeded at the density of 3,000 per well in 55 μl, and 5 μl were added from the daughter plate. RKO cells were seeded at the density of 2,000 per well in 55 μl, and 5 μl were added from the daughter plate. The assay was incubated for 24 h at 37° C. 10% Alamar Blue was added to each well and the assay was incubated for 16 h (see above). Compounds for retesting were purchased from the manufacturers or from Sigma-Aldrich (see above). Stocks were prepared in DMSO at 4 mg/ml.
Each cell line (RKO, RKO-E6, HeLa and TC32) was treated with a dose combination matrix of doxorubicin and a selected hit compound. Each treatment was done in a triplicate in 384-well format. The average percent inhibition of cell proliferation, measured with Alamar Blue, was determined using the following formula: […]

[1] = Rescue and toxicity of Compound 164 and analogs (Table 4); conditions: for TC50: Table 4, toxicity; for Max % Toxicity / Max % Rescue: Table 4, cell model not stated
p53 = test: Western blot of p53 (p21, MDM2) levels; format: cell-based, human; conditions: RKO-E6 cells; in words
Protocol: Protein content was quantified using a BioRad protein assay reagent (BioRad, cat #500-0006). Equal amounts of protein were resolved on SDS-polyacrylamide gels. Proteins were transferred onto a PVDF membrane, blocked with 5% milk, and incubated with the appropriate primary and secondary antibodies. […] To test for equivalent loading in each lane, blots were stripped, blocked and probed with an anti-eIF-4E antibody.

N548 mutant cells = test: cells; conditions: Rattus norvegicus; for maximal fold induction: 72 h, read-out: N548 Mut: Max, maximum rescue expressed as fold over DMSO treated N548 mutant cells; for EC50: read-out: EC50 based on activity in N548 mutant cells
Protocol: Embryonic rat striatal neurons were conditionally immortalized by stably transfecting a temperature-sensitive SV40 large T-antigen (T-ag) to generate the ST14A cell line. ST14A cells proliferate at the permissive temperature (33° C.), but stop dividing at 39° C., as a result of T-ag degradation. […] As htt protein context modulates polyQ toxicity, testing these different length htt proteins could provide insight into the basis for context dependence.
ST14A Assay System: Calcein acetoxylmethyl ester (AM) (Molecular Probes, Eugene, Oreg.) is a non-fluorescent, membrane-permeable compound that is cleaved by intracellular esterases, which subsequently forms the anionic, fluorescent compound, calcein, that cannot permeate the cell membrane. […] A fluorescence viability assay, that is based on conversion of a non-fluorescent substrate (calcein AM) to a fluorescent product by nonspecific esterases in live cells, was employed to monitor cell death in wild type (wt) ST14A-Htt and mut ST14A-Htt cell lines. Cell death is indicated by a decrease in fluorescence. […] 3 μl of each compound was transferred from daughter plates to triplicate assay plates for a final assay concentration of 4 μg/ml in 0.1% DMSO (10 μM for NINDS compounds). Cells were incubated at 33° C. for 3 h to enhance attachment and then shifted to 39° C. (with 5% CO2). After 3 days (d), cells were washed 10 times with phosphate buffered saline (PBS) leaving 20 μl residual PBS per well, and 20 μl of 2 μg/ml calcein AM (Molecular probes) in PBS was added per well. […] The fluorescence intensity in each well was normalized to the median of each plate. The median normalized fluorescence of each triplicate assay wells was determined. A well with more than 50% increase in intensity above the median signal intensity was considered a “hit.”
Assay Development: An assay was developed for detecting mutant htt-induced cell death in ST14A cells in a 384-well plate format. A calcein AM-based method was used to detect cell viability, and optimized the cell number and time course for this method. […] A cell number titration was performed to determine the cell density at which calcein fluorescence was not saturated and the coefficient of variation (CV) was low (FIG. 14A-B). A low CV is critical for a high-throughput assay as it decreases noise and enhances sensitivity. […] Next, the kinetics of the fluorescence signal were determined.
Next, the serum concentrations that induce cell death in these cells were determined. Cells were seeded in decreasing serum (IFS) concentrations (5 to 0%), and cell viability was assayed after 3 d using the calcein AM assay (FIG. 14E).
A Z′ value of greater than 0 is required for a usable assay, with a maximum value of 1.0 for an ideal assay. For the assay, calcein fluorescence was used on the day of seeding to represent 100% rescue. The difference in calcein fluorescence signal on the day of seeding and after different number of days under serum deprivation was determined and used to calculate the Z′ factor. […] About 47,000 compounds were assayed in a 384-well plate format in triplicate to enhance the reliability of the primary screen.

[2] = system: PC12 expressing Q103 exon 1 htt; test: PC12 HD model, Alamar Blue viability; format: cell-based; conditions: for EC50: Rattus norvegicus, PC-12, unit inferred; for PC12 rescue: percent increase in viability in compound treated cells above DMSO treated: — = no activity in the assay (footnote n.a.)
Protocol: For enhanced stability the repeat portion consists of alternating CAG/CAA repeats. […] Mutant (mut) htt was induced by the ecdysone receptor agonist, tebufenozide.
For the PC12 assay, 7500 cells/well were plated in 384-well plates in 57 μl of PC12 medium with tebufenozide (1 μM). Compounds (3 μl) from daughter plates were added to the cells and incubated at 37° C. After 48 h, 20 μl of 40% Alamar Blue (Biosource, CA) in PC12 media was added per well and cells incubated for 12 h at 37° C. […] Fluorescence intensity was determined using a Packard Fusion plate reader with an excitation filter centered on 535 nm and an emission filter centered on 590 nm. Average percentage inhibition at each concentration was calculated.

## CCCCCC(O)C=CC1CCC(=O)C1CCCCCCC(=O)O (stereo not shown) [11-deoxyprostaglandin E1]
RKO-E6 cells; 24 h, in words
  effect on doxorubicin's lethality in RKO-E6 cells: showed no activity

## COc1ccccc1C1(CCN(Cc2ccccc2)C(=O)c2ccco2)CCOC(C)(C)C1 (stereo not shown) [Compound 164-10, 2-Furancarboxamide, N-(phenylmethyl)-N-[2-[tetrahydro-4-(2-methoxyphenyl)-2,2-dimethyl-2H-pyran-4-yl]ethyl]-(9CI)]
[1]
  EC50: 0.2 µM
  TC50: 1.7 µM
  Max % Toxicity: 62.27%

## COc1ccc(C2c3cc(OC)c(OC)cc3CCN2C(=O)c2ccco2)cc1OC (stereo not shown) [Compound 164-11, Isoquinoline, 1-(3,4-dimethoxyphenyl)-2-(2-furanylcarbonyl)-1,2,3,4-tetrahydro-6,7-dimethoxy-(9CI)]
[1]
  Max % Rescue: 7.95%

## CC(=O)N(CCC1(c2ccc(C)cc2)CCOC(C(C)C)C1)Cc1ccco1 (stereo not shown) [Compound 164-12, N-(2-furylmethyl)-N-{2-[2-isopropyl-4-(4-methylphenyl)tetrahydro-2H-pyran-4-yl]ethyl}acetamide]
[1]
  TC50: 8 µM
  Max % Toxicity: 60.37%

## CC(c1ccccc1)N(CCC(c1ccccc1)C1CCOC(C)(C)C1)C(=O)c1ccco1 (stereo not shown) [Compound 164-13, N-[3-(2,2-dimethyltetrahydro-2H-pyran-4-yl)-3-phenylpropyl]-N-(1-phenylethyl)-2-furamide]
[1]
  TC50: 4 µM
  Max % Toxicity: 55.74%

## COc1ccc(CN(CCC(c2ccc(OC)cc2)C2CCOC(C)(C)C2)C(=O)c2ccco2)cc1 (stereo not shown) [Compound 164-14, N-[3-(2,2-dimethyltetrahydro-2H-pyran-4-yl)-3-(4-methoxyphenyl)propyl]-N-(4-methoxybenzyl)-2-furamide]
[1]
  EC50: 0.2 µM
  TC50: 2 µM
  Max % Toxicity: 53.80%

## CCC(=O)N(CCC1(c2ccc(F)cc2)CCOC(C)(C)C1)Cc1ccc(OC)c(OC)c1 (stereo not shown) [Compound 164-15, Propanamide, N-[(3,4-dimethoxyphenyl)methyl]-N-[2-[4-(4-fluorophenyl)tetraydro-2,2-dimethyl-2H-pyran-4-yl}ethyl]-(9CI)]
[1]
  Max % Rescue: 48.92%

## CC1(C)CC(CCN(Cc2ccccc2)C(=O)c2ccco2)(c2ccccc2)CCO1 (stereo not shown) [Compound 164-16, 2-Furancarboxamide, N-(phenylmethyl)-N-[2-(tetrahydro-2,2-dimethyl-4-phenyl-2H-pyran-4-yl)ethyl]-(9CI)]
[1]
  CC50: 8 µM
  EC50: 0.2 µM
  Max % Toxicity: 53.14%

## O=C(c1ccco1)N1CCN(Cc2ccc3c(c2)OCO3)CC1 [Compound 164-17, 1-(1,3-benzodioxol-5-ylmethyl)-4-(2-furoyl)piperazine]
[1]
  Max % Toxicity: 31.31%

## COc1cccc(CN2CCN(C(=O)c3ccco3)CC2)c1 [Compound 164-18, 1-(2-furoyl)-4-(3-methoxybenzyl)piperazine]
[1]
  Max % Toxicity: 12.00%

## COc1ccc(CN2CCN(C(=O)c3ccco3)CC2)cc1OC [Compound 164-19, 1-(3,4-dimethoxybenzyl)-4-(2-furoyl)piperazine]
[1]
  EC50: 18.9 µM
  Max % Toxicity: 27.77%

## COc1ccc(CN(CCC2(c3ccccc3)CCOC(C)(C)C2)C(=O)c2ccco2)cc1OC (stereo not shown) [Compound 164]
[1]
  EC50: 10 µM
  Max % Toxicity: 1.27%

## CC[C@@]1(O)C(=O)OCc2c1cc1n(c2=O)Cc2cc3ccccc3nc2-1 [camptothecin, S-(+)-camptothecin]
RKO-E6 cells; Homo sapiens, RKOE6, 0.5 μg/ml alone, 24 h, read-out: growth inhibition by drug alone
  inhibition at 0.5 µg/mL: 20%
p53
  p53, p21, MDM2 levels: caused p53 to accumulate

## CCCCCCCCCCCCCCCC[N+](C)(C)C.[Br-] [cetrimonium bromide, cetyltrimethylammonium bromide]
RKO-E6 cells; 24 h, in words
  effect on doxorubicin's lethality in RKO-E6 cells: selectively increased doxorubicin's lethality
RKO-E6 cells; co-treatment with camptothecin, in words
  effect on camptothecin's lethality: did not synergize with camptothecin

## O[C@H]1[C@H]2c3cc4c(cc3CN3CC[C@H](C[C@@H]1O)[C@H]23)OCO4 [dihydrolycorine]
RKO-E6 cells; 24 h, in words
  effect on doxorubicin's lethality in RKO-E6 cells: potentiated doxorubicin's lethality

## CC[C@H]1CN2CCc3cc(OC)c(OC)cc3[C@@H]2C[C@@H]1C[C@H]1NCCc2cc(OC)c(OC)cc21 [emetine]
RKO-E6 cells; 24 h, in words
  effect on doxorubicin's lethality in RKO-E6 cells: potentiated doxorubicin's lethality

## NC(=O)NO [hydroxyurea]
RKO-E6 cells; 24 h, in words
  effect on doxorubicin's lethality in RKO-E6 cells: only modest upregulation of doxorubicin's lethality

## NNc1nnc(-c2ccccc2)c2ccccc12 [revertin-7]
N548 mutant cells
  maximal fold induction: 2
  EC50: 1 mg/L (≈ 4.23 µM)
[2]
  EC50: 2 mg/L (≈ 8.46 µM)
  PC12 rescue: percent increase in viability in compound treated cells above DMSO treated: 18%

## CCCc1ccc(CC2=C(O)C(=O)c3ccccc3C2=O)cc1 [revertin-8]
N548 mutant cells
  maximal fold induction: 3
  EC50: 2 mg/L (≈ 6.53 µM)
[2]
  EC50: 2 mg/L (≈ 6.53 µM)
  PC12 rescue: percent increase in viability in compound treated cells above DMSO treated: 15%

## CCCCCCCCC(=O)N(Cc1ccco1)C(C)c1nc2ccccc2c(=O)n1-c1cc(C)ccc1C (stereo not shown) [revertin-9]
N548 mutant cells
  maximal fold induction: 2
  EC50: 1 mg/L (≈ 1.95 µM)
[2]
  EC50: 25 mg/L (≈ 48.7 µM)
  PC12 rescue: percent increase in viability in compound treated cells above DMSO treated: 25%

## CCCCc1ccc(C(=O)N(CCC(=O)N2CCC(Cc3ccccc3)CC2)Cc2ccco2)cc1 [revertin-11]
N548 mutant cells
  maximal fold induction: 2.5
  EC50: 2 mg/L (≈ 4.11 µM)
[2]
  EC50: 30 mg/L (≈ 61.6 µM)
  PC12 rescue: percent increase in viability in compound treated cells above DMSO treated: 27%

## Propanamide, N-[(3,4-dimethoxyphenyl)methyl]-N-[2-(tetrahydro-2,2-dimethyl-4-phenyl-2H-pyran-4-yl)ethyl]-(9CI) [Compound 164-8]
[1]
  Max % Rescue: 51.48%
